Source: ChEMBL document CHEMBL1156290, “Identification of amide bioisosteres of triazole oxytocin antagonists” (Bioorg Med Chem Lett, 2010)

Key:
Type in all cases: functional
Oxytocin receptor = molecular target: T1, Oxytocin receptor (Homo sapiens, UniProt P30559); assay: Antagonist activity at human cloned OT receptor by cell based beta-lactamase reporter gene assay
T1 sequence (P30559 whole entry): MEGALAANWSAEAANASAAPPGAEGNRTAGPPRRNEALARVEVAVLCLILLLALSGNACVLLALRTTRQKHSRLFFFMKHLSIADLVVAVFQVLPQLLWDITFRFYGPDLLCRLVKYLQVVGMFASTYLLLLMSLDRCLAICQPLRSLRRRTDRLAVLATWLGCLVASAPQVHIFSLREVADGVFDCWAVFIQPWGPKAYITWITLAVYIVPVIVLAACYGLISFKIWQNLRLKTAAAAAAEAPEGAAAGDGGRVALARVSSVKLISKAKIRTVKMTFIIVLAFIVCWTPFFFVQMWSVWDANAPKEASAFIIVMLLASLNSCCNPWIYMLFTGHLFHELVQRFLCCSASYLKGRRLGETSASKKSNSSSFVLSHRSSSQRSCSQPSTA

[1] = molecular target: T2, Vasopressin V1b receptor (Homo sapiens) (UniProt P47901); assay: Antagonist activity at human cloned vasopressin V1B receptor at 10 uM by cell based beta-lactamase reporter gene assay; design: scale not given: the % may be the effect or the level left
T2 sequence (whole entry): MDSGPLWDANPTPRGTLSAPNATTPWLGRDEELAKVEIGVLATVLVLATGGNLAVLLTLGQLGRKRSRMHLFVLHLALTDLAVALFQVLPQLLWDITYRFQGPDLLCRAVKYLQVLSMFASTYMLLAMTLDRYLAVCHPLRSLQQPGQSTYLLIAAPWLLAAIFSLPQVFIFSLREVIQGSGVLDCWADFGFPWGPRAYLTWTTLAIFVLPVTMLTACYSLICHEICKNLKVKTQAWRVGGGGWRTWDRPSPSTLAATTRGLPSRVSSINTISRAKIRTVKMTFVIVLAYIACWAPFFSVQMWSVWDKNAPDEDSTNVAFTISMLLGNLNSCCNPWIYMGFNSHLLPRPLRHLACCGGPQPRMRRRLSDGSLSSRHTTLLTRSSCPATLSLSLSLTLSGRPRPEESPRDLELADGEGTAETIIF

Vasopressin V2 receptor = Vasopressin V2 receptor (Homo sapiens, UniProt P30518); assay: Antagonist activity at human cloned vasopressin V2 receptor by cell based beta-lactamase reporter gene assay
Vasopressin V1a receptor = Vasopressin V1a receptor (Homo sapiens, UniProt P37288); assay: Antagonist activity at human cloned vasopressin V1A receptor by cell based beta-lactamase reporter gene assay
Sequence of Vasopressin V1a receptor (P37288 whole entry): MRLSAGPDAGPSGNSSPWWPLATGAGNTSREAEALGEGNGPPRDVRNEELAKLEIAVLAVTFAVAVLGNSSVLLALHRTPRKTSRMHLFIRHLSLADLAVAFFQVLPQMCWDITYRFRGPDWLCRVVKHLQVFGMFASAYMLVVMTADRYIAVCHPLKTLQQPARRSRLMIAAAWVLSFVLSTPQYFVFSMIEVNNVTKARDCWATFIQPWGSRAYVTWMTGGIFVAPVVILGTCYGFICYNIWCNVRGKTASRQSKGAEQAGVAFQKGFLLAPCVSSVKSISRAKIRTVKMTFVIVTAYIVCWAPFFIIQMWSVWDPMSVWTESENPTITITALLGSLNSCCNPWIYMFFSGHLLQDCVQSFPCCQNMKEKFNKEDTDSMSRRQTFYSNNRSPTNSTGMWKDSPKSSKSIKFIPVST

Sequence of Vasopressin V2 receptor (P30518 whole entry): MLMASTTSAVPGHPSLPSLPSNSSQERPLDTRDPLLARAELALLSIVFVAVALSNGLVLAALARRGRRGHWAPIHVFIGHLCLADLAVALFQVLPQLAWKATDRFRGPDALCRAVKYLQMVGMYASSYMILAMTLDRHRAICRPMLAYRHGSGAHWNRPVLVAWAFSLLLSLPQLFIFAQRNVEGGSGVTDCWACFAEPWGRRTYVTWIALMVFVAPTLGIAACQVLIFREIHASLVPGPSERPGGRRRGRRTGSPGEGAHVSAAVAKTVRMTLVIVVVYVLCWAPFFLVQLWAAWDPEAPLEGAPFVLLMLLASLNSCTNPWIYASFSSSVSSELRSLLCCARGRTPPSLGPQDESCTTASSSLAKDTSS

Structure (SMILES) | Ki (Oxytocin receptor) | Activity [1] | Ki (Vasopressin V2 receptor) | Ki (Vasopressin V1a receptor)
CCN(C(=O)c1ccc(-c2ccccc2)[nH]c1=O)c1ccc(OC)nc1 | 97 nM |  |  | 
COCCN(C(=O)c1cnc(-c2cccc(C)c2C)cn1)c1ccc(OC)nc1 | 11 nM | < 20% | 2400 nM | 539 nM
CCN(C(=O)c1cc2cc(OC)ccc2o1)c1ccc(OC)nc1 | 85 nM |  |  | 
CCN(C(=O)c1cnc(-c2cccc(C)c2C)cn1)c1ccc(OC)nc1 | 25 nM | < 20% | 2830 nM | 472 nM
CCN(C(=O)c1cnn(-c2ccc(OC)cc2)c1C)c1ccc(OC)nc1 | 91 nM |  |  | 
COCCN(C(=O)c1cnc(-c2ccc(C#N)cc2C)cn1)c1ccc(OC)nc1 | 433 nM |  | > 10000 nM | 12000 nM
COc1ccc(N(C)C(=O)c2cnc(-c3ccc(C#N)cc3C)cn2)cn1 | 620 nM |  | > 10000 nM | > 10000 nM
COc1ccc(N(C)C(=O)c2cnc(-c3ccc(F)cc3C)cn2)cn1 | 218 nM |  |  | 2000 nM
CCN(C(=O)c1cnc(-c2cccc(F)c2C)cn1)c1ccc(OC)nc1 | 29 nM |  | 343 nM | 5900 nM
CCN(C(=O)c1ccc(-c2ccc(OC)cc2)[nH]c1=O)c1ccc(OC)nc1 | 84 nM |  |  | 
COc1ccc(N(C)C(=O)c2cnc(-c3ccccc3C)cn2)cn1 | 92 nM |  | > 10000 nM | 1100 nM
COCCN(C(=O)c1cnn(-c2ccccc2)c1C)c1ccc(OC)nc1 | 98 nM |  |  | 
CCN(C(=O)c1cc(-c2ccc(C)cc2)n[nH]1)c1ccc(OC)nc1 | 41 nM |  |  | 
COc1ccc(N(C(=O)c2cnc(-c3ccccc3C)cn2)C(C)C)cn1 | 150 nM |  | > 10000 nM | > 10000 nM
CCN(C(=O)c1cnc(-c2ccc(C#N)cc2C)cn1)c1ccc(OC)nc1 | 393 nM |  | > 10000 nM | 7200 nM
COc1ccc2oc(C(=O)N(C)c3ccc(OC)nc3)cc2c1 | 232 nM |  |  | 
CCN(C(=O)c1cnn(-c2ccccc2)c1C)c1ccc(OC)nc1 | 85 nM |  |  | 
COc1ccc(N(C(=O)c2cnc(-c3cccc(C)c3C)cn2)C(C)C)cn1 | 14 nM |  | 2300 nM | > 10000 nM
CCN(C(=O)COc1ccc(C(C)C)cc1)c1ccc(OC)nc1 | 251 nM |  |  | 
CCN(C(=O)c1cnc(-c2ccccc2C)cn1)c1ccc(OC)nc1 | 129 nM |  | > 10000 nM | 2300 nM
COc1ccc(N(C)C(=O)c2ccc(-c3ccccc3)cc2)cn1 | 90 nM |  |  | 
CCN(C(=O)COc1ccc2ccccc2c1)c1ccc(OC)nc1 | 48 nM |  |  | 
COCCN(C(=O)c1cnc(-c2ccccc2C)cn1)c1ccc(OC)nc1 | 115 nM |  | > 10000 nM | 3300 nM
